Columns and labels:
Format in all cases: in vivo
[1] = test system: Abutilon theophrasti (ABUTH); assay: Pre-emergence herbicidal action against ABUTH; settings: Dosage column 320 g/ha (title prints 3200 g/ha); scored visually after about 3 weeks; 100% = plants have died
In short: (§1)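 Dosages of 320 g/ha or less; pre-emergence; WP or EC in aqueous spray, 0.5% additive, 600 l/ha; greenhouse; visual % effect after ~3 wk relative to control pots.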

[2] = test system: Alopecurus myosuroides (ALOMY); assay: Pre-emergence herbicidal action against ALOMY; settings: scored visually after about 3 weeks, 100% = plants have died
In short: as §1

[3] = test system: Amaranthus retroflexus (AMARE); assay: Pre-emergence herbicidal action against AMARE; settings: visual scoring after about 3 weeks vs untreated controls
In short: as §1

[4] = test system: Avena fatua (AVEFA); assay: Pre-emergence herbicidal action against AVEFA; settings: visual scoring after about 3 weeks vs untreated controls
In short: as §1

[5] = test system: Echinochloa crus-galli (ECHCG); assay: Pre-emergence herbicidal action against ECHCG
In short: as §1

[6] = test system: Lolium rigidum (LOLRI); assay: Pre-emergence herbicidal action against LOLRI
In short: as §1

[7] = test system: Matricaria inodora (MATIN); assay: Pre-emergence herbicidal action against MATIN
In short: as §1

[8] = test system: Pharbitis purpurea (PHBPU); assay: Pre-emergence herbicidal action against PHBPU
In short: as §1

[9] = test system: Polygonum convolvulus (POLCO); assay: Pre-emergence herbicidal action against POLCO
In short: as §1

[10] = test system: Setaria viridis (SETVI); assay: Pre-emergence herbicidal action against SETVI
In short: as §1

[11] = test system: Verconica persica (VERPE); assay: Pre-emergence herbicidal action against VERPE
In short: as §1

[12] = test system: Viola tricolor (VIOTR); assay: Pre-emergence herbicidal action against VIOTR
In short: as §1

[13] = test system: Alopecurus myosuroides (ALOMY); assay: Post-emergence herbicidal action against ALOMY; settings: visual rating about 3 weeks after treatment vs untreated controls (100% = plants have died, 0% = like control plants)
In short: (§2)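 Rates were 320 g/ha or below, applied as aqueous WP/EC spray with 0.5% additive (600 l/ha) onto one-leaf-stage plants. About 3 weeks later in the greenhouse, damage was scored visually against untreated plants on a 0–100% scale, where 100% means plants died.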

[14] = test system: Avena fatua (AVEFA); assay: Post-emergence herbicidal action against AVEFA; settings: visual rating about 3 weeks after treatment
In short: as §2

[15] = test system: Echinochloa crus-galli (ECHCG); assay: Post-emergence herbicidal action against ECHCG
In short: as §2

[16] = test system: Lolium rigidum (LOLRI); assay: Post-emergence herbicidal action against LOLRI
In short: as §2

[17] = test system: Matricaria inodora (MATIN); assay: Post-emergence herbicidal action against MATIN
In short: as §2

[18] = test system: Pharbitis purpurea (PHBPU); assay: Post-emergence herbicidal action against PHBPU
In short: as §2

[19] = test system: Verconica persica (VERPE); assay: Post-emergence herbicidal action against VERPE
In short: as §2

[20] = test system: Viola tricolor (VIOTR); assay: Post-emergence herbicidal action against VIOTR
In short: as §2

[21] = test system: Setaria viridis (SETVI); assay: Post-emergence herbicidal action against SETVI
In short: as §2

| Structure (SMILES) | Pre-emergence action against ABUTH [1] [%] | Pre-emergence action against ALOMY ([2]; 80 g/ha) [%] | Pre-emergence action against ALOMY ([2]; 320 g/ha) [%] | Pre-emergence action against AMARE in % ([3]; 80 g/ha) [%] | Pre-emergence action against AMARE in % ([3]; 320 g/ha) [%] | Pre-emergence action against AVEFA in % ([4]; 320 g/ha) [%] | Pre-emergence action against ECHCG in % ([5]; dosage 80 g/ha) [%] | Pre-emergence action against ECHCG in % ([5]; dosage 320 g/ha) [%] | Pre-emergence action against LOLRI in % ([6]; dosage 320 g/ha) [%] | Pre-emergence action against MATIN in % ([7]; dosage 80 g/ha) [%] | Pre-emergence action against MATIN in % ([7]; dosage 320 g/ha) [%] | Pre-emergence action against PHBPU in % ([8]; dosage 80 g/ha) [%] | Pre-emergence action against PHBPU in % ([8]; dosage 320 g/ha) [%] | Pre-emergence action against POLCO in % ([9]; dosage 80 g/ha) [%] | Pre-emergence action against POLCO in % ([9]; dosage 320 g/ha) [%] | Pre-emergence action against SETVI in % ([10]; dosage 80 g/ha) [%] | Pre-emergence action against SETVI in % ([10]; dosage 320 g/ha) [%] | Pre-emergence action against VERPE in % ([11]; dosage 320 g/ha) [%] | Pre-emergence action against VIOTR in % ([12]; 320 g/ha, Viola tricolor) [%] | Pre-emergence action against VIOTR in % ([12]; dosage 80 g/ha) [%] | other results |
| --- | --- | --- | --- | --- | --- | --- | --- | --- | --- | --- | --- | --- | --- | --- | --- | --- | --- | --- | --- | --- | --- |
| C[C@@H](Oc1nn(-c2ncccc2F)c(-c2ccc(F)nc2)c1C(F)(F)F)C(=O)O [Example I-317] | 90 | 100 | 100 | 100 | 100 | 100 | 100 | 100 | 100 | 100 | 100 | 90 | 90 | 100 | 100 | 80 | 90 | 100 | 100 | 100 | Pre-emergence action against AVEFA in % ([4]; 80 g/ha): 90%; Pre-emergence action against LOLRI in % ([6]; dosage 80 g/ha): 100%; Pre-emergence action against VERPE in % ([11]; dosage 80 g/ha): 80%; Post-emergence action against ALOMY in % ([13]; 80 g/ha): 100%; Post-emergence action against ALOMY in % ([13]; 320 g/ha): 100%; Post-emergence action against AVEFA in % ([14]; 80 g/ha): 90%; Post-emergence action against AVEFA in % ([14]; 320 g/ha): 90%; Post-emergence action against ECHCG in % ([15]; dosage 80 g/ha): 80%; Post-emergence action against ECHCG in % ([15]; dosage 320 g/ha): 90%; Post-emergence action against LOLRI in % ([16]; dosage 80 g/ha): 90%; Post-emergence action against LOLRI in % ([16]; dosage 320 g/ha): 90%; Post-emergence action against MATIN in % ([17]; dosage 80 g/ha): 90%; Post-emergence action against MATIN in % ([17]; dosage 320 g/ha): 90%; Post-emergence action against PHBPU in % ([18]; dosage 320 g/ha): 80%; Post-emergence action against VERPE in % ([19]; 320 g/ha, VERPE): 90%; Post-emergence action against VERPE in % ([19]; dosage 80 g/ha): 90%; Post-emergence action against VIOTR in % ([20]; 80 g/ha): 90%; Post-emergence action against VIOTR in % ([20]; 320 g/ha): 90% |
| CCOC(=O)COc1nn(-c2ncccc2C)c(-c2cncc(F)c2)c1Br [Example I-211] | 80 | 80 | 100 | 100 | 100 | 90 | 90 | 100 | 80 | 90 | 90 | 90 | 90 | 90 | 90 | 90 | 100 | 100 | 100 | 90 | Post-emergence action against ALOMY in % ([13]; 80 g/ha): 80%; Post-emergence action against ALOMY in % ([13]; 320 g/ha): 90%; Post-emergence action against ECHCG in % ([15]; dosage 80 g/ha): 80%; Post-emergence action against ECHCG in % ([15]; dosage 320 g/ha): 80%; Post-emergence action against LOLRI in % ([16]; dosage 320 g/ha): 80%; Post-emergence action against MATIN in % ([17]; dosage 80 g/ha): 80%; Post-emergence action against MATIN in % ([17]; dosage 320 g/ha): 80%; Post-emergence action against PHBPU in % ([18]; dosage 80 g/ha): 90%; Post-emergence action against PHBPU in % ([18]; dosage 320 g/ha): 100%; Post-emergence action against SETVI in % ([21]; dosage 80 g/ha): 80%; Post-emergence action against SETVI in % ([21]; dosage 320 g/ha): 80%; Post-emergence action against VERPE in % ([19]; 320 g/ha, VERPE): 90%; Post-emergence action against VERPE in % ([19]; dosage 80 g/ha): 80%; Post-emergence action against VIOTR in % ([20]; 80 g/ha): 80%; Post-emergence action against VIOTR in % ([20]; 320 g/ha): 90% |

From patent US20240041042A1, “1-(PYRIDYL)-5-AZINYLPYRAZOLE DERIVATIVES, AND THEIR USE FOR CONTROL OF UNDESIRED PLANT GROWTH” (Bayer Aktiengesellschaft, priority 2020, published 2024)
